The results in this text go back to PMC11439681, “The identification of potent dual-target monopolar spindle 1 (MPS1) and histone deacetylase 8 (HDAC8) inhibitors through pharmacophore modeling, molecular docking, molecular dynamics simulations, and biological evaluation” (Frontiers in Pharmacology, 2024).

Where only a bound is given, the exact number is not on record here.

For one series, the system named is P-histone H3. As to the kind of experiment: Gene expression analysis of P-histone H3 in HepG2 cells. The series is classed as cell-based, human. As to conditions: 20 h, 0.25, 1 and 5 μM. How it is done:
Total RNA was extracted after the indicated treatments using the RNeasy Mini Kit (cat. no. 74106; QIAGEN, Hilden, Germany) following the manufacturer’s protocol. The concentration of RNA was measured on a plate reader, and then the extracted RNA was converted to cDNA using a High-Capacity RNA-to-cDNA kit from Applied Biosystems (Thermo Fisher Scientific, Inc.). Quantitative real-time polymerase chain reaction was performed in triplicate in a 96-well optical PCR plate using a QuantStudio Real-Time PCR System. Gene expression levels were evaluated using the comparative CT method. Graphical representations of the data were generated by GraphPad Prism 8.
Previous studies indicate that MPS1 inhibitor exerts its antitumor effects by downregulating the levels of phosphorylated histone H3 ([Naud et al., 2013]), while HDAC8 inhibitor achieves its antitumor activity by upregulating lysine residue 62 acetylation (Ace-K62) levels of pyruvate kinase M2 (PKM2) ([Zhang et al., 2020]). The gene expression of P-histone H3 and Ace-K62 was detected in HepG2 cells with the treatment of MPH-5 for 20 h (at the concentration of 0, 0.25, 1, and 5 μM, respectively). […] As the concentration of MPH-5 increases, the inhibitory effect on P-histone H3 and the promotional effect on Ace-K62 become more pronounced.

The next series relates to HEK293. As to the kind of experiment: MTT cytotoxicity assay, HEK293 normal cells. The conditions noted are these: Homo sapiens, 72 h cell treatment. The series is classed as cell-based. How it is done: The cells (5 × 10^4 cells/well) were incubated overnight in 96-well plates. A series of solutions containing varying concentrations of inhibitors were added and incubated at 37°C for a period of 72 h. Subsequently, the culture medium was removed, followed by a subsequent incubation of the cells with a 5 mg/mL MTT stock solution for 4 h. After centrifugation, the precipitate was solubilized in DMSO and gently shaken for 15 min. Finally, the absorbance measurement at 570 nm was completed using a microplate reader. Data analysis was performed using GraphPad Prism 6.0 software.
In general terms: Tetrazolium assays rely on reduction of a dye to a coloured formazan, in cell work by metabolically active cells.

The next series concerns the target ERBB4 (Homo sapiens, UniProt Q15303). Briefly: In vitro selectivity assay. Type of series: biochemical. The conditions noted are these: selectivity panel. How it is done:
(§1) The inhibitory effects of compound MPH-5 on a panel of 68 kinases and other histone deacetylases were evaluated to assess the selectivity profile of MPH-5. This experiment was conducted by ICE Bioscience Inc. (Beijing, China).

The target of another series is T1, MET (Homo sapiens, UniProt P08581).
T1 construct: ICE Bioscience Inc. (contract assay provider)
Briefly: In vitro selectivity assay. The series is classed as biochemical. The conditions noted are these: selectivity panel. The procedure: as §1

The next series has as its target T2, EPHA1 (Homo sapiens, UniProt P21709).
T2 construct: ICE Bioscience Inc. (assay service)
As to the kind of experiment: In vitro selectivity assay. The series is classed as biochemical. The conditions noted are these: selectivity panel. The procedure:
as §1

A further series deals with T3, EPHA7 (Homo sapiens, UniProt Q15375).
T3 construct: ICE Bioscience Inc. (assay service)
Briefly: In vitro selectivity assay. The series is classed as biochemical. As to conditions: selectivity panel. How it is done:
as §1

The target of a further series is ZAP70 (Homo sapiens, UniProt P43403). Briefly: In vitro selectivity assay. As to conditions: selectivity panel. The series is classed as biochemical. How it is done: as §1
In another series the target is FES (Homo sapiens, UniProt P07332). Briefly: In vitro selectivity assay. The series is classed as biochemical. The conditions noted are these: selectivity panel. How it is done: as §1
In a further series the target is T4, MUSK (Homo sapiens, UniProt O15146).
T4 construct: ICE Bioscience Inc. (contract assay provider)
Briefly: In vitro selectivity assay. Type of series: biochemical. The conditions noted are these: selectivity panel. The procedure:
as §1

A further series addresses T5, ABL2 (Homo sapiens, UniProt P42684).
T5 construct: ICE Bioscience Inc. (assay service)
As to the kind of experiment: In vitro selectivity assay. As to conditions: selectivity panel. Type of series: biochemical. How it is done:
as §1

The target in a further series is INSRR (Homo sapiens, UniProt P14616). Briefly: In vitro selectivity assay. The series is classed as biochemical. The conditions noted are these: selectivity panel. How it is done: as §1
In another series the target is T6, HDAC3 (Homo sapiens, UniProt O15379).
T6 construct: ICE Bioscience Inc. (contract assay provider)
Briefly: In vitro selectivity assay. The conditions noted are these: selectivity panel. Type of series: biochemical. The procedure: as §1

In a further series the target is ERBB2 (Homo sapiens, UniProt P04626). As to the kind of experiment: In vitro selectivity assay. Type of series: biochemical. The conditions noted are these: selectivity panel. The procedure: as §1
In another series the target is T7, CSF1R (Homo sapiens, UniProt P07333).
T7 construct: ICE Bioscience Inc. (assay service)
Briefly: In vitro selectivity assay. The series is classed as biochemical. As to conditions: selectivity panel. The procedure:
as §1

The next series deals with HepG2 xenograft tumor. As to the kind of experiment: In vivo antitumor assay, HepG2 xenograft model. As to conditions: i.p., 1, 5 and 10 mg/kg. On the set-up: species or system BALB/c mice. The procedure: Male BALB/c mice (6 weeks old) were purchased from Changzhou Cavens Experimental Animal Limited Company (Changzhou, China). The xenograft model was established by subcutaneous injection of a suspension of HepG2 human liver cancer cells in PBS (200 μL, 1 × 10^7 cells) into the mice. The mice were randomized into four groups and received intraperitoneal injections of vehicle or MPH-5 at concentrations of 1, 5 and 10 mg/kg. Tumor volume was measured at 3-day intervals and calculated as follows: (c × c × d)/2 (c, the smallest diameter; d, the largest diameter). The experiments involving animals were approved by the Ethics Committee of China Pharmaceutical University.

Chain of INSRR (P14616 27-1297): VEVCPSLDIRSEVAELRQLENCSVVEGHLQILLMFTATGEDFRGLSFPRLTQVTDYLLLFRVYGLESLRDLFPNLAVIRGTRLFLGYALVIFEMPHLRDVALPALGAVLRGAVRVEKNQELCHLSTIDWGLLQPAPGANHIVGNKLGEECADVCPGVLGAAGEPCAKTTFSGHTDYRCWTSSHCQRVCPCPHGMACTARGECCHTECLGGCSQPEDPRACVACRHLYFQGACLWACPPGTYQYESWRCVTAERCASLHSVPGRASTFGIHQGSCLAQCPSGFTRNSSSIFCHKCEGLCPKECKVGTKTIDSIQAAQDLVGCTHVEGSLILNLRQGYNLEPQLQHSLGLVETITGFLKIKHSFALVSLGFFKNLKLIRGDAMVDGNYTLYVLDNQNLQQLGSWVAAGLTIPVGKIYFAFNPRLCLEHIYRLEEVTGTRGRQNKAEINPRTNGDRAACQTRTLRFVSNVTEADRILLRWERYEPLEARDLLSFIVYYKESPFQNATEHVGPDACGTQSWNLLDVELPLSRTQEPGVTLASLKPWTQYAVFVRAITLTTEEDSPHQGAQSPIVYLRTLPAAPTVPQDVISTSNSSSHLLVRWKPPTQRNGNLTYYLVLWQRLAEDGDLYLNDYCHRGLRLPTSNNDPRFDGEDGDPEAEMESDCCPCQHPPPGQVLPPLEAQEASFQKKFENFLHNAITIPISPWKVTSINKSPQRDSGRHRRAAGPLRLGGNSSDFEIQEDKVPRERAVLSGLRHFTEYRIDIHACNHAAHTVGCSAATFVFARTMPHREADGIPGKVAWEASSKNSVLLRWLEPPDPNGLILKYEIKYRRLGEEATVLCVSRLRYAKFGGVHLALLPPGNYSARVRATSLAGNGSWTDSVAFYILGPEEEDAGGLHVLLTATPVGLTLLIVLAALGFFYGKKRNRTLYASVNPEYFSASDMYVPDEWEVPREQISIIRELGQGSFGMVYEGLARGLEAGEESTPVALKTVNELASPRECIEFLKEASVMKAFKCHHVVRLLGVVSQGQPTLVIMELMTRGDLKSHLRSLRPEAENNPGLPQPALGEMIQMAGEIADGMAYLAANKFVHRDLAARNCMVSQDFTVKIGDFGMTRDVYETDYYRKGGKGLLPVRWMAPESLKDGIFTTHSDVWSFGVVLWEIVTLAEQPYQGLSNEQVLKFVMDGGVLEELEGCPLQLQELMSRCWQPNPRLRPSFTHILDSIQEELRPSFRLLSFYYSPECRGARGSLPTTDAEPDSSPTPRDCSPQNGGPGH
Chain of ERBB2 (P04626 23-1255): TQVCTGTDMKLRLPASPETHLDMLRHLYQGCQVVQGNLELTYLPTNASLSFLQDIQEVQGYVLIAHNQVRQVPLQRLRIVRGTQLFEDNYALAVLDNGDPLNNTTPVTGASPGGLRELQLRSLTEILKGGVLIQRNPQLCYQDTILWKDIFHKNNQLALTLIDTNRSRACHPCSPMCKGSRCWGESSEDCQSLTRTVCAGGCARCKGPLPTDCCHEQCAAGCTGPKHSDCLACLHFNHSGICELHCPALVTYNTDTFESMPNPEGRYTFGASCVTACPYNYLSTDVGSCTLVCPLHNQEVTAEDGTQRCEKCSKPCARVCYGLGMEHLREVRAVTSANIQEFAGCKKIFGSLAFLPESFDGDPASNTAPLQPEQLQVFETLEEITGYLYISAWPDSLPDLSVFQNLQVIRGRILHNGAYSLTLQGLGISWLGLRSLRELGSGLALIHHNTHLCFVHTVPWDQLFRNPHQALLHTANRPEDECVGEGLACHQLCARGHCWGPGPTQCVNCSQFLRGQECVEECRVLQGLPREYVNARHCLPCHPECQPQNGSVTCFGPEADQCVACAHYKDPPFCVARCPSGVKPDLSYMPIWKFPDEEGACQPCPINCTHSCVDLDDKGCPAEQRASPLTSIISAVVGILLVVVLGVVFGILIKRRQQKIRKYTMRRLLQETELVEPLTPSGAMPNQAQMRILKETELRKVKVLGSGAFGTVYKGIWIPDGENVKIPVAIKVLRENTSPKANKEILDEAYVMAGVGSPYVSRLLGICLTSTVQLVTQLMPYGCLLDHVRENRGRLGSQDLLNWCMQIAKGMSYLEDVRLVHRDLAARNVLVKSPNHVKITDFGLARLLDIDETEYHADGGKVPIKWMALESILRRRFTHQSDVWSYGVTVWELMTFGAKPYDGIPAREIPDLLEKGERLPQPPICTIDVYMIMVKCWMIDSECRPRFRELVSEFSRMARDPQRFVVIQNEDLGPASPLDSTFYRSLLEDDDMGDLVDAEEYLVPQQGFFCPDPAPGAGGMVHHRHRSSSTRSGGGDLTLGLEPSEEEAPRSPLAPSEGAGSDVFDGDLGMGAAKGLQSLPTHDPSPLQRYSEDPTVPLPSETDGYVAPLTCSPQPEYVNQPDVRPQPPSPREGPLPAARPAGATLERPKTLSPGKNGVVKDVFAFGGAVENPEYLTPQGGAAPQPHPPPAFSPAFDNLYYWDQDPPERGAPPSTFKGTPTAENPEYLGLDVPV
T2 sequence (P21709 26-976): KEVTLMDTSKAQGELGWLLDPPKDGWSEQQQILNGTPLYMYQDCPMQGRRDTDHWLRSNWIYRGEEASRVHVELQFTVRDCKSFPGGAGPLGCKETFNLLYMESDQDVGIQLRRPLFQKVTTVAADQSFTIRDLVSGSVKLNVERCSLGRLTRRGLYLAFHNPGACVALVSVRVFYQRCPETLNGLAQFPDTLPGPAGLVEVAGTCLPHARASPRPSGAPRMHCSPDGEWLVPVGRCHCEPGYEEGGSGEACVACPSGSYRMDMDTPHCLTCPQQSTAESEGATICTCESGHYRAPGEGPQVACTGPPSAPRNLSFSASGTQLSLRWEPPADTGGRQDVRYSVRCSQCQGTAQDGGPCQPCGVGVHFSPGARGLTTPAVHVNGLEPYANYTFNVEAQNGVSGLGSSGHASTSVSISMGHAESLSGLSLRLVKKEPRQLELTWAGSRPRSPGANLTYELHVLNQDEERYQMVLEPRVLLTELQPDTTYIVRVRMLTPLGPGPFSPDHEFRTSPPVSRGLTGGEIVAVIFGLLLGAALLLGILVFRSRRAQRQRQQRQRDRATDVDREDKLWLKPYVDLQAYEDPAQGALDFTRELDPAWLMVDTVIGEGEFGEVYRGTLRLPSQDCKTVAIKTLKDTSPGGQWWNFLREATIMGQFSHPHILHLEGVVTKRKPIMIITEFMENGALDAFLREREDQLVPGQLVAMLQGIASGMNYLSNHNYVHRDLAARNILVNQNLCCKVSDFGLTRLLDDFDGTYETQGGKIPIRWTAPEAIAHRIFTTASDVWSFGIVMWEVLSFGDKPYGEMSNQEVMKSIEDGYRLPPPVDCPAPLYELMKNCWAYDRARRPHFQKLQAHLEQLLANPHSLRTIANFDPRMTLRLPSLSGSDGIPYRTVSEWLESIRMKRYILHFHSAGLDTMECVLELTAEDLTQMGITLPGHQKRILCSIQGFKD
T1 sequence (P08581 25-1390): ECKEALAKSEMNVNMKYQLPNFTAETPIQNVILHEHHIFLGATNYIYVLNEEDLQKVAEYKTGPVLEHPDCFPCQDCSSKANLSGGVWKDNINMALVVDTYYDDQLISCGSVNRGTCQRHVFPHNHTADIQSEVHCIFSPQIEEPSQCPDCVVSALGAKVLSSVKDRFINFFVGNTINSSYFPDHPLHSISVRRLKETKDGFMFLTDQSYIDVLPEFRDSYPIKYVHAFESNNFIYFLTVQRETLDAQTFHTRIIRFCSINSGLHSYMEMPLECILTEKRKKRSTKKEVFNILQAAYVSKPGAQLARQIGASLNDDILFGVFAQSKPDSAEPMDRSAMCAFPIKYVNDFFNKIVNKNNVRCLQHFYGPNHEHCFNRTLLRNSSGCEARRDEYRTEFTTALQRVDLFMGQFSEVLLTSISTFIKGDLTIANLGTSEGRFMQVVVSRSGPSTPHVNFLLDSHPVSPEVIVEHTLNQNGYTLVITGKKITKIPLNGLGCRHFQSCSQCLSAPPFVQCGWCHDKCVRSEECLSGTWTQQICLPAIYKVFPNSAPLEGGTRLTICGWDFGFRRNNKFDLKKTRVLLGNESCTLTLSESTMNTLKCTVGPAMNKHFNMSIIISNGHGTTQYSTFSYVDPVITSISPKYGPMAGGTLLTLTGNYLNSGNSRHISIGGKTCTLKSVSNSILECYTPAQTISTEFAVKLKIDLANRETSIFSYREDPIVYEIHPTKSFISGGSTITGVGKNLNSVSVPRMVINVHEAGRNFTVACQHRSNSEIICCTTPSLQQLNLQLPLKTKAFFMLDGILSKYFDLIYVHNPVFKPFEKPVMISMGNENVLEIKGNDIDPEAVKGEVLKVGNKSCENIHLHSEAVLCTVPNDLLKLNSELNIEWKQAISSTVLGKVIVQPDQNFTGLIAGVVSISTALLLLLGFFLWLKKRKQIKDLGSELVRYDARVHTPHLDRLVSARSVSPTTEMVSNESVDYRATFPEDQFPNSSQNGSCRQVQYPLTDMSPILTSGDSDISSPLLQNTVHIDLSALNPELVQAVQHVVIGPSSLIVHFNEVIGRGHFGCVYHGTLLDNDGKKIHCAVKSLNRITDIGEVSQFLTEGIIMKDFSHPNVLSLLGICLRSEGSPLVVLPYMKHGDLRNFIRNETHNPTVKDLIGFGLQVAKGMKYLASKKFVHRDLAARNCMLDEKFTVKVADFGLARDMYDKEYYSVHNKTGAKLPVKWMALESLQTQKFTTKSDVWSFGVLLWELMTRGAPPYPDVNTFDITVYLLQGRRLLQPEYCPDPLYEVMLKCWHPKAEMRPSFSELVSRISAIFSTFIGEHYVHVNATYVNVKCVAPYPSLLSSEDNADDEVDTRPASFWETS

Usually IC50 stands for the concentration needed to halve the response being measured. A high value points to lower potency. Turning to `Cn1cc(-c2cc3cnc(Nc4ccc(-c5cncn5/C=C/C(=O)NO)cc4Cl)cc3n2C(=O)OC(C)(C)C)cn1` [MPH-5], in the series on P-histone H3, the “phosphorylated histone H3 levels” value is reported as “dose-dependent regulation”. Also, the IC50 in the series on HEK293, against ERBB4, against MET, on EPHA1, at EPHA7 and against ZAP70 was above 10 µM each time. Moreover, the IC50 against FES, at MUSK, against ABL2, against INSRR, against HDAC3 and on ERBB2 was above 10 µM in each case. Also, the half-inhibitory concentration (IC50) on CSF1R was above 10 µM. In the series with HepG2 xenograft tumor (HepG2 xenograft mice), the body weight change entry was “did not induce any significant body weight change”. Further, in the series on HepG2 xenograft tumor (HepG2 xenograft, vs vehicle), the “tumor growth (tumor volume)” value was “significantly and dose-dependently inhibited the tumor growth”.
